Measured values as given in US11131674B2, “Microarray compositions and methods of their use” (ADEPTRIX CORP., priority 2013, dated 2021).

Experiments:
[1] = tested on: MCF-7 cell line cells; experiment: Whole cell MALDI TOF MS imaging of live cell microarray reacted with apoptosis-inducing compounds; assay type: cell-based, human; settings: MCF-7 cells, 24 hours; etoposide 1 mM, camptothecin 10 μM, andrographolide 100 μM, 500 μM and 1 mM; FIG. 39E
Procedure: The live cell microarray was fabricated as follows: a sterile 12-well silicone gasket was affixed to a top surface of a sterile APEX™ glass microwell plate, as schematically depicted in FIG. 15A and 1×DMEM cell culture medium supplemented with 10% FBS and 1% of Penicillin/Streptomycin was dispensed into each well of the fabricated 12-chamber cell culture device. Several hundred of MCF-7 cell line cells were seeded into each of the 12 wells and the cells were grown to […] density on the microwell plate within 48 hrs using a standard cell culture protocol. The fabricated live cell microarray thus comprised 12 reactive sites defined by the dimensions of the silicone gasket, each reactive site measuring approximately 7.5 mm×7.5 mm and containing approximately 5×10^5 live cells.
The live cell microarray fabricated as described in the previous Example was utilized to measure response of the MCF-7 cell line cells to several apoptosis-inducing compounds, which included etoposide, camptothecin and andrographolide. In addition, the live cell microarray was utilized to measure response of the MCF-7 cells to the same compound (andrographolide) provided in three different concentrations.
Stock solutions of the three compounds listed above were prepared in DMSO and stored at 4° C. or at −20° C. The compounds were diluted with the DMEM cell culture medium to the final concentrations of 1 mM (etoposide), 10 μM (camptothecin) and 100 μM, 500 μM and 1 mM (andrographolide) immediately before use. The original cell growth medium within the individual wells of the silicone gasket was removed by pipetting and replaced with approximately 250 μL of a cell growth medium supplemented with a specific compound. FIG. 39A schematically depicts a layout of the cell microarray. […]
The reacted cell microarray was measured by MALDI TOF MS in the linear mid-mass positive mode as described previously. […]

[2] = tested on: MCF-7 cell line cells; experiment: Cell counting (Trypan blue, automated cell counter) on composite microbead-microwell live cell microarray; settings: MCF-7 cells, 24 hours, cell growth medium supplemented with etoposide released from the ion exchange beads; Trypan blue
[3] = as above; settings: human, MCF-7 cells on a microbead-microwell array plate
[4] = tested on: MCF-7 cells; experiment: Difference whole cell mass spectrometry for detection of spectral changes due to apoptosis; assay type: cell-based, human; settings: 24 hrs incubation, FIG. 35
Procedure: The human breast cancer cell line MCF-7 cells were grown in Gibco® DMEM medium on a 6-well clear polystyrene cell culture plate (BD Falcon). The cells were grown according to the manufacturer's protocol to approximately 75% confluency. At this point several apoptosis-inducing compounds were added to the individual wells and the cells were further incubated for 24 hrs. Both live adherent cells and dead cells detached from the surface were collected from the individual wells of the cell culture plate and the cell viability count was performed on Countless® automated cell counter (Life Technologies) per manufacturer's protocol.
The cells for WCMS analysis were prepared as described in the previous examples. The cell concentration was approximately 1,000 cells per μL.
Whole cell MALDI TOF MS spectra were acquired from the control (untreated) and treated cell populations using instrument parameters described in the previous examples. […] The bottom spectrum represents a difference mass spectrum produced by subtracting the control spectrum from the Etoposide-treated spectrum.

[5] = tested on: MCF-7 cell line cells; experiment: Optical imaging of cell density and morphology on composite microbead-microwell live cell microarray; assay type: cell-based, human; settings: MCF-7 cells, 24 hours, optical microscope, FIG. 41A/41B
Text: In this Example, the release of etoposide from the beads into the cell culture medium occurred primarily via diffusion mechanism, although other methods, such as photorelease of active compounds from individual beads may be also utilized due to the fact that the solid support used for the microarray fabrication is sufficiently transparent in the UV-visible range.
Optical imaging: the multi-well gasket was separated from the microwell array plate, the surface of the plate rinsed with 1×PBS buffer and the microwell plate was imaged using an optical microscope to determine the cell density and cell morphology. A representative image acquired from an area of the microwell plate, which contained the cells exposed to the drug-free DMEM medium, is shown in FIG. 41A. A representative image acquired from an area of the microwell plate, which contained the cells exposed to the etoposide-containing DMEM medium, is shown in FIG. 41B.

SMILES | intensity of peaks in the 7,891-7,977 m/z spectral region compared to untreated cells [1] | live cells [2] | total cells [2] | viability at 24 h [3] [%] | difference mass spectrum, treated minus control [4] | density of adherent cells, drug-free vs etoposide-containing DMEM medium [5]
C=C1CC[C@@H]2[C@](C)(CO)[C@H](O)CC[C@@]2(C)[C@@H]1C/C=C1/C(=O)OC[C@H]1O [andrographolide] | significantly greater intensity | – | – | – | – | –
CC[C@@]1(O)C(=O)OCc2c1cc1n(c2=O)Cc2cc3ccccc3nc2-1 [camptothecin] | significantly greater intensity | – | – | – | – | –
COc1cc([C@@H]2c3cc4c(cc3[C@@H](O[C@@H]3O[C@@H]5CO[C@@H](C)O[C@H]5[C@H](O)[C@H]3O)[C@H]3COC(=O)[C@H]23)OCO4)cc(OC)c1O [etoposide] | significantly greater intensity | 2.1×10^5 | 4.7×10^5 | 44 | reveals multiple spectral features | significantly greater density of adherent cells was observed for the cells grown in the drug-free medium
